According to patent publication EP0565377B1, “Therapeutic agents for use in the treatment of Parkinson's Disease” (Kyowa Hakko Kogyo Co., Ltd., priority 1992, dated 1993):
Where two headings read alike, the source gives them in different places.

Columns and labels:
[1] = test system: Haloperidol-Induced Catalepsy; experiment: Effect on haloperidol-induced catalepsy; format: in vivo, male ddY mice; conditions: test compound 10 mg/kg orally; for inhibition in vivo at 10 mg/kg: Mus musculus, po, 1 h, rate of decrease in total score based on control group, read-out: Remission Rate (%); for Number of the Animals Showing Remission: of 5 mice, catalepsy score not more than 4 points; for Total Score: total catalepsy score of 5 mice (25 points at the full)
Experimental: The experiment was performed by using several groups of 5-weeks-old male ddY mice (weighing 22 to 24 g, Japan SLC), each group consisting of 5 mice. Haloperidol (Janssen Pharmaceutica) suspended in 0.3% CMC was intraperitoneally administered to each mouse at a dose of 1.0 mg/kg. Test compounds were suspended in 0.3% CMC or in injectable distilled water (Otsuka Pharmaceutical Co., Ltd.) containing Tween 80. L-DOPA (Kyowa Hakko Kogyo Co., Ltd.) and benserazide hydrochloride (Kyowa Hakko Kogyo Co., Ltd.) were suspended in 0.3% CMC. One hour after the haloperidol administration, the test compound suspensions and the control suspension [0.3% CMC or injectable distilled water (Otsuka Pharmaceutical Co., Ltd.) containing Tween 80] containing no test compound were orally administered to separate groups of the mice (0.1 ml per 10 g of body weight). One hour after the administration of the test compound, the forelimbs of each mouse and subsequently the hindlimbs of the same mouse were placed on a 4.5 cm-high, 1.0 cm-wide bar and catalepsy was estimated. All of the test compounds were orally administered at a dose of 10 mg/kg, and L-DOPA (100 mg/kg) and benserazide (25 mg/kg) were intraperitoneally administered together as a control experiment. The catalepsy score and the standard of judgment are shown below.
The effect of the compounds was evaluated by the total of the catalepsy scores of five mice in each group (25 points at the full). The groups wherein the total score was not more than 20 points were estimated to be effective. The number of the animals showing remission against catalepsy is the number of the mice for which the catalepsy score was not more than 4 points.

dd-strain male mice = experiment: Acute toxicity test (minimum lethal dose, oral); format: in vivo; conditions: oral administration, mortality seven days after administration, three mice per group
Experimental: Test compounds were orally administered to groups of dd-strain male mice weighing 20±1 g, each group consisting of three mice. Seven days after the administration, minimum lethal dose (MLD) of each compound was determined by observing the mortality.

[2] = test system: Parkinson's Disease Model in Mouse; experiment: Effect on locomotor activity of Parkinson's disease model in mouse (MPTP-treated mice, Automex-II horizontal activity); format: in vivo, male C57BL/6 mice
Experimental: 1-Methyl-4-phenyl-1,2,3,6-tetrahydropyridine (MPTP) causes symptoms of Parkinson's disease in humans [Science, 219, 979 (1983)]. It is reported that an experimental Parkinson's disease model was obtained by administering MPTP to mice [Science, 224, 1451 (1984)]. If a compound is effective on the experimental Parkinson's disease model in mouse, the compound can be expected to have a therapeutic effect on Parkinson's disease.
The experiment was performed by using several groups of 7-weeks-old male C57BL/6 mice (weighing 20 to 21 g, Japan SLC), each group consisting of 8 mice. MPTP (Aldrich Chemical Co., Inc.) dissolved in a physiological saline solution (Otsuka Pharmaceutical Co., Ltd.) was intraperitoneally administered to each mouse once a day for five consecutive days at a dose of 30 mg/kg. A test compound was suspended in injectable distilled water (Otsuka Phamaceutical Co., Ltd.) containing Tween 80 [polyoxyethylene (20) sorbitan monooleate]. L-DOPA (Kyowa Hakko Kogyo Co., Ltd.) was suspended in 0.3% CMC (sodium carboxylmethylcellulose). Thirty minutes after the final MPTP administration, the test compound suspensions and the control suspension [injectable distilled water (Otsuka Pharmaceutical Co., Ltd.) containing Tween 80] containing no test compound were orally administered to separate groups of the mice (0.1 ml per 10 g of body weight). The amount of active movements (horizontal activity) of each mouse was measured by using Automex-II (Columbus Instruments International Corp.) for the period of 30 minutes starting 30 minutes after the administration of the test compound. The effect of the compounds was evaluated by comparing the average counts of the active movements of the test compound-administered groups with those of the control groups. A significant difference test was performed by using Student's t-test.

[3] = Table 4-2, 0.3% Tween 80 control 25
[4] = Table 3-5, test compound 40 mg/kg orally, normal control 2252 ±210.1, MPTP control 18 ± 8.4

Row | SMILES | inhibition in vivo at 10 mg/kg ([1]; Table 4-2) | Number of the Animals Showing Remission ([1]; Table 4-2) | Total Score [1, 3] | MLD (dd-strain male mice) | Amount of Active Movements (average count ± S.E.M) ([2]; Table 3-2, test compound 10 mg/kg orally, normal control 2185 ±156.2, MPTP control 38 ± 24.2) | inhibition in vivo at 10 mg/kg ([1]; Table 4-1) | Number of the Animals Showing Remission ([1]; Table 4-1) | Total Score ([1]; Table 4-1, 0.3% CMC control 25) | Amount of Active Movements (average count ± S.E.M) ([2]; Table 3-1, test compound 10 mg/kg orally, 30 min count starting 30 min after dosing, normal control 1875 ± 77.7, MPTP control 207 ± 85.5) | Amount of Active Movements (average count ± S.E.M) [2, 4]
1 | CCCn1c(=O)c2[nH]c(/C=C/c3cc(Br)c(OC)c(OC)c3)nc2n(CCC)c1=O [Compound 59, (E)-8-(3-bromo-4,5-dimethoxystyryl)-1,3-dipropylxanthine] | 24% | 5 | 19 points | > 300 mg/kg | – | – | – | – | – | –
2 | CCCn1c(=O)c2c(nc(/C=C/c3ccc(C)c(C)c3)n2C)n(CCC)c1=O [Compound 31, (E)-8-(3,4-dimethylstyryl)-7-methyl-1,3-dipropylxanthine] | 28% | 4 | 18 points | > 100 mg/kg | – | – | – | – | – | –
3 | CCn1c(=O)c2c(nc(/C=C/c3cc(OC)c(OC)c(OC)c3)n2C)n(CC)c1=O [Compound 4, (E)-1,3-diethyl-7-methyl-8-(3,4,5-trimethoxystyryl)xanthine] | – | – | – | > 300 mg/kg | 961 ±164.7 count | 20% | 4 | 20 points | – | –
4 | C=CCn1c(=O)c2c(nc(/C=C/c3cc(OC)c(OC)c(OC)c3)n2C)n(CC=C)c1=O [Compound 7, (E)-1,3-diallyl-7-methyl-8-(3,4,5-trimethoxystyryl)xanthine] | – | – | – | > 300 mg/kg | – | 48% | 4 | 13 points | – | –
5 | CCCn1c(=O)c2c(nc(/C=C/c3ccc(OC)cc3)n2C)n(CCC)c1=O [Compound 6, (E)-8-(4-methoxystyryl)-7-methyl-1,3-dipropylxanthine] | – | – | – | > 300 mg/kg | – | 24% | 3 | 19 points | – | –
6 | CCCn1c(=O)c2[nH]c(/C=C/c3ccc4c(c3)OCCO4)nc2n(CCC)c1=O [Compound 16, (E)-8-[2-(1,4-benzodioxan-6-yl)vinyl]-1,3-dipropylxanthine] | – | – | – | > 300 mg/kg | – | 20% | 4 | 20 points | – | –
7 | CCCn1c(=O)c2c(nc(/C=C/c3ccc(OC)c(OC)c3)n2C)n(CCC)c1=O [Compound 1, (E)-8-(3,4-dimethoxystyryl)-7-methyl-1,3-dipropylxanthine] | – | – | – | > 300 mg/kg | – | 48% | 5 | 13 points | 628 ±174.5 count | –
8 | CCCn1c(=O)c2c(nc(/C=C/c3ccc(OCC)cc3)n2C)n(CCC)c1=O [Compound 48, (E)-8-(4-ethoxystyryl)-7-methyl-1,3-dipropylxanthine] | 76% | 5 | 6 points | > 100 mg/kg | – | – | – | – | – | –
9 | CCCn1c(=O)c2c(nc(/C=C/c3ccc4c(c3)OCO4)n2C)n(CCC)c1=O [Compound 19, (E)-7-methyl-8-(3,4-methylenedioxystyryl)-1,3-dipropylxanthine] | – | – | – | > 300 mg/kg | – | 24% | 3 | 19 points | – | –
10 | CCCn1c(=O)c2[nH]c(/C=C/c3ccc(OC)cc3OC)nc2n(CCC)c1=O [Compound 24, (E)-8-(2,4-dimethoxystyryl)-1,3-dipropylxanthine] | – | – | – | > 100 mg/kg | – | 24% | 4 | 19 points | – | –
11 | CCCOc1ccc(/C=C/c2nc3c(c(=O)n(CCC)c(=O)n3CCC)n2C)cc1 [Compound 50, (E)-7-methyl-8-(4-propoxystyryl)-1,3-dipropylxanthine] | 24% | 3 | 19 points | > 100 mg/kg | – | – | – | – | – | –
12 | CCCn1c(=O)c2c(nc(/C=C/c3ccc(OC)c(C)c3C)n2C)n(CCC)c1=O [Compound 13, (E)-8-(4-methoxy-2,3-dimethylstyryl)-7-methyl-1,3-dipropylxanthine] | – | – | – | > 300 mg/kg | – | 80% | 5 | 5 points | – | –
13 | CCCn1c(=O)c2c(nc(/C=C/c3ccc(O)c(O)c3)n2C)n(CCC)c1=O [Compound 53, (E)-8-(3,4-dihydroxystyryl)-7-methyl-1,3-dipropylxanthine] | 20% | 4 | 20 points | > 100 mg/kg | – | – | – | – | – | –
14 | CCCn1c(=O)c2nc(/C=C/c3ccc(OC)c(OC)c3OC)[nH]c2n(CCC)c1=O [Compound 20, (E)-1,3-dipropyl-8-(2,3,4-trimethoxystyryl)xanthine] | – | – | – | > 300 mg/kg | – | 24% | 3 | 19 points | – | –
15 | CCCCn1c(=O)c2c(nc(/C=C/c3cc(OC)c(OC)c(OC)c3)n2C)n(CCCC)c1=O [Compound 8, (E)-1,3-dibutyl-7-methyl-8-(3,4,5-trimethoxystyryl)xanthine] | – | – | – | > 300 mg/kg | – | – | – | – | – | 43 ± 28.3 count
16 | CCCn1c(=O)c2c(nc(/C=C/c3cc(OC)c(OC)c(OC)c3)n2C)n(CCC)c1=O [Compound 5, (E)-7-methyl-1,3-dipropyl-8-(3,4,5-trimethoxystyryl)xanthine] | – | – | – | > 300 mg/kg | – | 28% | 4 | 18 points | – | –
17 | CCCn1c(=O)c2nc(/C=C/c3cc(OC)c(OC)c(OC)c3)[nH]c2n(CCC)c1=O [Compound 9, (E)-1,3-dipropyl-8-(3,4,5-trimethoxystyryl) xanthine] | – | – | – | > 300 mg/kg | – | – | – | – | – | 41 ± 18.0 count
18 | CCCn1c(=O)c2c(nc(/C=C/c3cc(OC)c(OC)cc3OC)n2C)n(CCC)c1=O [Compound 23, (E)-7-methyl-1,3-dipropyl-8-(2,4,5-trimethoxystyryl)xanthine] | – | – | – | > 300 mg/kg | – | 28% | 4 | 18 points | – | –
19 | CCCn1c(=O)c2[nH]c(/C=C/c3ccc4c(c3)OCO4)nc2n(CCC)c1=O [Compound 18, (E)-8-(3,4-methylenedioxystyryl)-1,3-dipropylxanthine] | – | – | – | > 300 mg/kg | – | 20% | 4 | 20 points | – | –
20 | CCCn1c(=O)c2c(nc(/C=C/c3ccc(OC)c(C)c3OC)n2C)n(CCC)c1=O [Compound 15, (E)-8-(2,4-dimethoxy-3-methylstyryl)-7-methyl-1,3-dipropylxanthine] | – | – | – | > 300 mg/kg | – | 24% | 4 | 19 points | – | –
21 | COc1cc(/C=C/c2nc3c([nH]2)c(=O)n(C)c(=O)n3C)cc(OC)c1OC [Compound 10, (E)-8-(3,4,5-trimethoxystyryl)theophylline] | – | – | – | > 300 mg/kg | – | – | – | – | – | 32 ± 21.2 count
